The target of data set [1] is T1, Nuclear factor erythroid 2-related factor 2 (Homo sapiens, UniProt Q16236).
T1 sequence (Q16236 whole entry): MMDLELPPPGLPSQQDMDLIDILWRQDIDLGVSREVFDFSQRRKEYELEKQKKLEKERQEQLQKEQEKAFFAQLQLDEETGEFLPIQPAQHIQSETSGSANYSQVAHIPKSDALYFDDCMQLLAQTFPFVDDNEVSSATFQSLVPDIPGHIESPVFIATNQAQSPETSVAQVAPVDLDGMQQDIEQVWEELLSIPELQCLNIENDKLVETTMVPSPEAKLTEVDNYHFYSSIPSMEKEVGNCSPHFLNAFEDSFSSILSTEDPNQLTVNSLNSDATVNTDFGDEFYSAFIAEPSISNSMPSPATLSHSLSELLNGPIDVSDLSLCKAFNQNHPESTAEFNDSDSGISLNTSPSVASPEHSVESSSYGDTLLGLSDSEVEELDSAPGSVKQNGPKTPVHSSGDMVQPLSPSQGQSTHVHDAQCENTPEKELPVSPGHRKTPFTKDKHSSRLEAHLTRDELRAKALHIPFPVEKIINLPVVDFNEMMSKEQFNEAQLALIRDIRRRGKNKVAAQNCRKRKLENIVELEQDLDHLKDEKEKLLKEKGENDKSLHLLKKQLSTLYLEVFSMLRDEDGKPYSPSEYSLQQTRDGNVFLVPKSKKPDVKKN
In words: Activation of Nrf2 in human U2OS cells co-expressing Keap1 assessed as induction of Nrf2 nuclear translocation incubated for 6 hrs by PathHunter chemiluminescence based analysis. The format is cell-based.

Data set [2] deals with T2, CYP1A2 (Homo sapiens, UniProt P05177).
T2 sequence (P05177 whole entry): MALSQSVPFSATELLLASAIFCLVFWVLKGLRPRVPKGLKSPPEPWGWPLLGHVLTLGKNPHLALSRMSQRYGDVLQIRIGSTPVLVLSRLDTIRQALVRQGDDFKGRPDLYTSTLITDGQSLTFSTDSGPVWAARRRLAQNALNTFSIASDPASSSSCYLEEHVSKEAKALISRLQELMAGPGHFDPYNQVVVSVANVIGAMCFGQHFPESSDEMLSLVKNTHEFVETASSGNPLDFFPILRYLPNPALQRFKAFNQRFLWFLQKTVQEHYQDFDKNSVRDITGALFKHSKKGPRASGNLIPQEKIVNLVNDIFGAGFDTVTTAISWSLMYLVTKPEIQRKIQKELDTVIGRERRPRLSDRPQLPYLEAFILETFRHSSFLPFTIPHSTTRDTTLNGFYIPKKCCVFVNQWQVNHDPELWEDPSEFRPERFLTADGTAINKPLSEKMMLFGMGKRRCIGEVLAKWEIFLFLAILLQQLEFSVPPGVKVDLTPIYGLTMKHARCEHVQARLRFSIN
Kind of data set: Inhibition of CYP1A2 (unknown origin) assessed as enzyme activity at 10 uM relative to control. The format is ADME. Further details: scale not given: the % may be the effect or the level left. As to conditions: read-out: Activity.

In data set [3] the target is CYP3A4 (Homo sapiens, UniProt P08684). In words: Inhibition of CYP3A4 (unknown origin) assessed as enzyme activity at 10 uM relative to control. As to conditions: read-out: Activity. The format is ADME. Also noted: scale not given: the % may be the effect or the level left.
CYP3A4, sequence (P08684 whole entry): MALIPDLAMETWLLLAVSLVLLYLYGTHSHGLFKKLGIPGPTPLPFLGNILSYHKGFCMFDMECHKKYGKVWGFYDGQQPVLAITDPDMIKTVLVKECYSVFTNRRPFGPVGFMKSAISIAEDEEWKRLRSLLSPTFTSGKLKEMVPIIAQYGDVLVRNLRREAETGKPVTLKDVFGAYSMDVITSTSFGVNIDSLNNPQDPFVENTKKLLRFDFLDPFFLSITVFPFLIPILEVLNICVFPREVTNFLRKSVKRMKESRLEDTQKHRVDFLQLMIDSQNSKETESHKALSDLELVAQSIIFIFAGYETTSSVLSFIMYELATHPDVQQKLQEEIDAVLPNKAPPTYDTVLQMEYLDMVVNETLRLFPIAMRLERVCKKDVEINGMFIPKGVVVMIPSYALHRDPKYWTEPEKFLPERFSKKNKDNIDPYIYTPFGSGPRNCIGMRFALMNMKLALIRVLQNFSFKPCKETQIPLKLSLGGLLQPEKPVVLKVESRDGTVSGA
In data set [4] the target is CYP2C9 (Homo sapiens, UniProt P11712). In words: Inhibition of CYP2C9 (unknown origin) assessed as enzyme activity at 10 uM relative to control. The format is ADME. Further details: scale not given: the % may be the effect or the level left. The settings on record: read-out: Activity.
CYP2C9, sequence (P11712 whole entry): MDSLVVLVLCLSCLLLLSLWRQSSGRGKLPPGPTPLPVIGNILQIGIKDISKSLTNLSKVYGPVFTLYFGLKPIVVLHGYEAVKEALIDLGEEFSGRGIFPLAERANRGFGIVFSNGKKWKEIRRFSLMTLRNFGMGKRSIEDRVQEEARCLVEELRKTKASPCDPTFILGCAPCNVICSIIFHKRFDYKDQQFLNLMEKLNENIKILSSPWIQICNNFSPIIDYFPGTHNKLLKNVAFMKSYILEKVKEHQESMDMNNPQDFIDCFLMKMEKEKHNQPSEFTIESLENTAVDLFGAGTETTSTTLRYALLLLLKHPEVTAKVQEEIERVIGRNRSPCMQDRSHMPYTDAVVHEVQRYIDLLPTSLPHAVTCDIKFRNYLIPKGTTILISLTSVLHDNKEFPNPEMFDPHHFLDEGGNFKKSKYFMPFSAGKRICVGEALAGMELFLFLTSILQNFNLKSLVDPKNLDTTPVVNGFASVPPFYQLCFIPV
For data set [5], the target named is CYP2C19 (Homo sapiens, UniProt P33261). In words: Inhibition of CYP2C19 (unknown origin) assessed as enzyme activity at 10 uM relative to control. The format is ADME. Also noted: scale not given: the % may be the effect or the level left. The settings on record: read-out: Activity.
CYP2C19, sequence (P33261 whole entry): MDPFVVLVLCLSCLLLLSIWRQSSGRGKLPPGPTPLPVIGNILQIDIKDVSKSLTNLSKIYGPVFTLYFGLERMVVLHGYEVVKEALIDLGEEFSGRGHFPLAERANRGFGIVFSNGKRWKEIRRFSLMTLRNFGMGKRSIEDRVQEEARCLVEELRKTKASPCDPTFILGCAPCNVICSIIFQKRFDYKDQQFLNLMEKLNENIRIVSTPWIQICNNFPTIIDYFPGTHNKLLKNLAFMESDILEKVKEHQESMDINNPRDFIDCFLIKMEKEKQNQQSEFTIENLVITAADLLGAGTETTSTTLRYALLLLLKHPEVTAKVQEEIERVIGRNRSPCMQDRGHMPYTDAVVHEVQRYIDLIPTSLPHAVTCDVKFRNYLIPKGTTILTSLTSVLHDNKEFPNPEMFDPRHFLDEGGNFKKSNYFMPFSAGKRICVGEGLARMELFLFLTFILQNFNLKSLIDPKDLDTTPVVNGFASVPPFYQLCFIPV
Data set [6] deals with CYP2D6 (Homo sapiens, UniProt P10635). Kind of data set: Inhibition of CYP2D6 (unknown origin) assessed as enzyme activity at 10 uM relative to control. Further details: scale not given: the % may be the effect or the level left. The settings on record: read-out: Activity. The format is ADME.
CYP2D6, sequence (P10635 whole entry): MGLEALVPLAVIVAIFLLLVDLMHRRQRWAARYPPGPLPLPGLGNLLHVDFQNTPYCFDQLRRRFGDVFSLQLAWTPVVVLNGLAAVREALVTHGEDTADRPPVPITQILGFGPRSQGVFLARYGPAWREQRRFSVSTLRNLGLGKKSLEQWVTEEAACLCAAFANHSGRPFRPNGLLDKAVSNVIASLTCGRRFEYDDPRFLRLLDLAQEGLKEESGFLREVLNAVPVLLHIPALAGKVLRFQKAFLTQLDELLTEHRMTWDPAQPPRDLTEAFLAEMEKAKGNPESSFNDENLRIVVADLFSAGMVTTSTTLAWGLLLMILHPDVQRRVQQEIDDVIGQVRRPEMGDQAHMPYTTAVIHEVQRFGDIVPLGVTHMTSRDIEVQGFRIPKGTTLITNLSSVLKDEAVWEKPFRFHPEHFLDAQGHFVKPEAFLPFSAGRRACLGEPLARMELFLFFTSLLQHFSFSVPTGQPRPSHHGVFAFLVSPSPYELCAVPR
A short description of data set [7]: Metabolic stability of the compound in human liver microsomes assessed as parent compound remaining measured after 30 mins. The settings on record: read-out: Stability. The format is ADME, Microsome. In general terms: Liver microsomes are vesicles of endoplasmic reticulum, rich in cytochrome P450 enzymes.
Data set [8] in a line: Metabolic stability of the compound in mouse liver microsomes assessed as parent compound remaining measured after 30 mins. The format is ADME, Microsome. The settings on record: read-out: Stability.
A short description of data set [9]: Metabolic stability of the compound in human plasma assessed as parent compound remaining measured after 30 mins. The format is ADME, cell-free. As to conditions: read-out: Stability.
Data set [10] is described as follows: Metabolic stability of the compound in rat plasma assessed as parent compound remaining measured after 30 mins. The format is ADME, cell-free. As to conditions: read-out: Stability.

With `COc1cccnc1S(=O)(=O)/C=C/c1ccccc1Cl`, the EC50 (in general, the concentration needed to bring the measured effect to its halfway point) in data set [1] was found to be 76 nM. Besides, the activity at 10 µM was determined as 71.8% in data set [2]; 87.1% in data set [3]; 59.7% in [4]; 60.7% in [5]; 93.4% in [6]. Further, the remaining at 0.5 h in data set [7] was 83.1%; in data set [8], 34.4%; in data set [9], 92.4%; in data set [10], greater than 99%.
Regarding `COc1ccnc(S(=O)(=O)/C=C/c2ccncc2Cl)c1`, in data set [1], the EC50 stood at 32 nM. The activity at 10 µM is 29.9% in data set [2]; 70.2% in [3]; greater than 99% in data set [4]; 22.4% in data set [5]; 69.8% in data set [6]. Besides, the remaining at 0.5 h was determined as 77.3% in data set [7], 50.4% in [8], 83.6% in [9] and 43.4% in [10].
For the molecule `COc1cccnc1S(=O)(=O)/C=C/c1ccccc1F`, the EC50 in [1] came out at 801 nM. Further, the activity at 10 µM in data set [2] is 79.4%; in data set [3] it was 89.8%; in data set [4], 79.7%; in data set [5], 68.4%; in data set [6] it was 98.8%. In addition, the remaining at 0.5 h turned out to be 89.4% in data set [7], 63.6% in data set [8], 95.9% in [9] and 93% in data set [10].
As to `COc1ccc(S(=O)(=O)/C=C/c2ncccc2Cl)nc1`, in data set [1], the EC50 was found to be 33 nM. Further, the activity at 10 µM in data set [2] was 74.2%; in data set [3] it was 72.6%; in data set [4], greater than 99%; in [5], 29%; in [6] it was greater than 99%. The remaining at 0.5 h was found to be 48.1% in [7], 44% in data set [8], 96.7% in data set [9] and 91.5% in data set [10].
